Measurements from US6506893B1, “Polynucleotides and their use for detecting resistance to streptogramin A or to streptogramin B and related compounds” (priority 1997, dated 2003).

Experiments:
[1] = tested on: Staphylococci resistant to synergistic mixtures of A and B compounds; conditions: Allignet et al., 1996; cited from earlier work
[2] = tested on: S. aureus recipient RN4220 transformants with pIP1717; assay: MIC by serial twofold dilutions in MHA, S. aureus RN4220 transformants carrying pIP1717 (vgaB); format: cell-based; conditions: Staphylococcus aureus; S. aureus RN4220 transformants with pIP1717 (2.4 kb HindIII-HaeIII fragment carrying vgaB), selected on 10 μg/ml erythromycin; read-out: PIIA MICs
Text: First, the 2.4 kb HindIII-HaeIII fragment of pIP 1675, which contains only 10 nucleotide from vatB, was inserted into plasmid pOX300, and the recombinant plasmid, pIP1717 (FIG. 1B), was introduced by electroporation into the S. aureus recipient, RN4220 (Kreiswirth et al., 1983). Plasmid pOX300, also named pOX7, (Dyke and Curnock, 1989), is a hybrid of pUC18 and pE194ts and replicates in E. coli where it confers resistance to ampicillin and to erythromycin, and in S. aureus where only resistance to erythromycin is expressed. The S. aureus transformants selected on 10 μg/ml erythromycin were resistant to streptogramin A and related compounds (PIIA MICs=8-16 μg/ml). Thus, the 2.4-kb HindIII-HaeIII insert of pIP1717 (FIG. 1B) probably carried a streptogramin A resistance gene and was sequenced. The nucleotide (nucleotide) sequence of this fragment was determined by the dideoxy method (Sanger et al., 1977) with the reagents and the procedure recommended by the suppliers of the T^7 sequencing kit (Pharmacia International). Arrows indicate the direction and extent of each dideoxy-sequencing reaction. (FIG. 1B).
(§1) Minimal inhibitory concentrations (MICs) of antibiotics were determined by serial twofold dilutions of antibiotics in MHA (Ericson H. M. and S. C. Sherris, ActaPathol. Microbiol. Scand., 1971, Suppl. 217:Section B).

[3] = tested on: S. aureus recipient strain RN4220 transformant harboring pIP1714; assay: Susceptibility to antimicrobial agents, S. aureus RN4220 transformant harboring pIP1714 (vatC, vgbB); format: cell-based, Staphylococcus aureus; conditions: RN4220 transformant with pIP1714, selected on BHIA with 10 μg/ml pristinamycin IIA
Protocol: The strain BM10711 harbored several plasmids including pIP1714 (5kb). This plasmid was […] by electroporation in a S. aureus recipient strain, RN4220. The transformant, harboring pIP1714, was selected on BHIA containing 10 μg/ml pristinamycin IIA.
Susceptibility to antimicrobial agents was determined with a disk diffusion assay and commercially available disks (Diagnostic Pasteur). Additional disks prepared in our laboratory contained streptogramin A (20 μg) or streptogramin B (40 μg).
as §1

CC1=C\[C@@H](O)CC(=O)Cc2nc(co2)C(=O)N2CCC=C2C(=O)O[C@H](C(C)C)[C@H](C)/C=C/C(=O)NC\C=C\1 [PIIA, pristinamycin IIA]
MIC [1]: ≥ 8 µg/mL
MIC [2]: 8 to 16 µg/mL

streptogramin A
resistance conferred by plasmid [3]: resistances

streptogramin B
resistance conferred by plasmid [3]: resistances
